{"source": "patent US12642786B2", "about": "“Methods, compositions and kits for treating multiple sclerosis and other disorders” (The Johns Hopkins University, priority 2018, dated 2026)", "key": {"[1]": {"system": "EAE (MOG35-55 immunized mice)", "assay": "EAE, late treatment initiated at day 28 post-immunization, clinical scoring", "assay_type": "in vivo, C57BL/6J mice", "description": "(§1) Active EAE was induced in 8-12 wk-old female C57BL/6J mice that had been allowed to acclimatize to the animal facility for at least 1 wk. MOG35-55 peptide dissolved in PBS at a concentration of 2 mg/mL was mixed 1:1 with complete Freund's adjuvant to make an emulsion. On day 0, mice were immunized by injecting 50 μL of the emulsion s.c. into each of two sites on the lateral abdomen. In addition, on day 0 and again on day 2, mice were injected intraperitoneally with 250 ng pertussis toxin. Mice were weighed and scored beginning on day 7 post-immunization. Scoring was performed in a blinded manner according to the following scale:\n(§2) Bryo-1 was prepared by initially dissolving in 100% ethanol and then further diluting to 20% ethanol and 1% DMSO in PBS. The final concentration of bryo-1 was […] Mice were treated by i.p. injection of […] bryo-1 or an equal volume of vehicle control (20% ethanol and 1% DMSO in PBS) 3 d per week (Monday, Wednesday, Friday).\nIn a third set of experiments, mice were randomized and treatment was begun on day 28 post-immunization, more than 10 d after peak disease and once motor deficits had reached a stable plateau.\nIn another set of mice, to determine whether bryo-1 could reverse established neurologic deficits in EAE, mice were randomized and began treatment on day 28 post-immunization, more than 10 d after peak disease and once motor deficits had reached a stable plateau (FIG. 2C). […] Treatment was continued for just more than 3 wk and discontinued on day 51 post-immunization."}, "[2]": {"system": "naive CD4+ lymphocytes", "assay": "Naive CD4+ T cells stimulated with α-CD3/CD28 antibodies, flow cytometry", "assay_type": "cell-based, C57BL/6J mice", "description": "(§3) For surface marker and intracellular cytokine staining of T cells, the cells were first restimulated with a cell stimulation mixture with protein transport inhibitors (eBioscience, catalog #00-4975-03) for 4 h in cRPMI at 37° C. They then underwent live/dead and surface marker staining as earlier. For intracellular cytokine staining, cells were permeabilized and fixed using either IC Fixation buffer for cytokine analysis (eBioscience, 00-8222-49) or FoxP3 fixation/permeabilization buffer for transcription factor analysis (eBioscience, 00-5521-00) after manufacturer recommended protocol and incubated with specific conjugated antibodies for the specified proteins in permeabilization buffer for 1 h.\nSpleens were harvested from 6-10-wk-old female C57BL/6J mice, and single-cell suspensions were generated in FACS buffer by disrupting spleens with the plunger of a syringe over a 70-μm nylon cell strainer (BD Falcon), pelleting cells by centrifugation (500×g for 8 min), and resuspending in fresh FACS buffer. Naive CD4^+ cells were then isolated by negative selection using an isolation kit from STEMCELL Technologies (catalog #19765).\nTissue culture plates were coated with α-CD3 antibody (BD Biosciences) by incubating them with 0.25-1.0 m/mL of antibody diluted in sterile PBS overnight at 4° C. or for 2-4 h at 37° C. The antibody solution was then removed, plates were washed once with sterile PBS, and naive CD4^+ T cells were seeded along with 0.25-1.0 m/mL α-CD28 antibody (BD Biosciences) in the presence or absence of the indicated doses of bryo-1. The cells were cultured for 3 d and then analyzed by flow cytometry."}, "[3]": {"system": "EAE (MOG35-55 immunized mice)", "assay": "EAE, treatment initiated at clinical score of 1.0, clinical scoring", "assay_type": "in vivo, C57BL/6J mice", "description": "as §1, §2\nIn a second set of experiments, mice were randomized and treatment was begun when the mice reached a clinical score of 1.0 (corresponding to tail paralysis). In this paradigm, mice received their first treatment on the day they reached a score of 1.0, and subsequently were returned to a 3 d/week schedule in sync with the other animals.\nThe effects of bryo-1 in two distinct therapeutic paradigms were analyzed. In both paradigms, treatments began after the onset of EAE, but the start of the treatments occurred at two different stages of the disease. In the first set of experiments, mice were randomized and treatment was initiated at the first clinical sign of motor weakness, corresponding to tail paralysis (FIG. 2A)."}, "[4]": {"system": "corpus callosum, LPC demyelination", "assay": "Lysolecithin (LPC)-induced demyelination, MBP staining", "assay_type": "in vivo, C57BL/6J mice", "details": "30 μg/kg IP at 3, 5, 7 and 9 dpl, assessed at 10 dpl", "description": "To evaluate the impact of systemic treatment with bryo-1 on physiologic demyelination in vivo, we conducted a lysolecithin (LPC)-induced demyelination animal study. LPC was stereotactically injected into the corpus callosum of 12-week old C57BL/6J mice. Bryo-1 (30 μg/kg) or vehicle was injected IP at 3, 5, 7, and 9 dpl followed by immunofluorescent assessment of MBP expression at 10 dpl."}, "[5]": {"system": "CD4+, Th1 and Th17 lymphocytes in EAE mice", "assay": "Flow cytometry of lymph node, spleen, brain and spinal cord in EAE mice, prevention paradigm", "assay_type": "in vivo, C57BL/6J mice", "description": "Mice were killed with pentobarbital and perfused via cardiac puncture with ice-cold HBSS without cations. Brain, spinal cord (collected using hydrostatic pressure), spleen, and lymph node tissue were isolated after perfusion and were mechanically dissociated by passing through 100-μm cell strainers. For CNS tissue, after dissociation, infiltrating mononuclear cells were separated from myelin debris using a 37/70% percoll gradient. After dissociation, spleens were incubated in ACK lysis buffer to remove red blood cell contamination. Cells were counted using a MACSQuant flow cytometer (Miltenyi Biotec).\nas §3\nCells were analyzed by flow cytometry using a MACSQuant flow cytometer (Miltenyi Biotec). Flow data analysis was performed in FlowJo (FlowJo) or FlowLogic (Inivai).\nEAE was elicited by immunizing 8-12-wk-old C57BL/6J mice with MOG35-55. Neurologic symptoms of EAE were most evident 10-14 d after MOG immunization, peaking at about 16 d and then plateauing with slight diminution until 21 d. Mice were treated with bryo-1 (30 μg/kg) or vehicle by i.p. injection 3 d per week."}, "[6]": {"details": "200 nM, cells stimulated with 0.25 μg/mL of α-CD3 and α-CD28 antibodies, 3 d"}, "[7]": {"details": "brain and spinal cord, peak disease (day 14)"}, "[8]": {"details": "lymph nodes, 8 d after immunization, prevention paradigm"}, "[9]": {"details": "lymph nodes, day 8, prevention paradigm"}, "[10]": {"details": "peak disease (day 14), prophylactic treatment"}, "[11]": {"details": "spleen, day 8, prevention paradigm"}}, "note": "“Also recorded” adds a separate entry of the source."}
{"smiles": "CCC/C=C/C=C/C(=O)OC1/C(=C/C(=O)OC)CC2CC(C(C)O)OC(=O)CC(O)CC3CC(OC(C)=O)C(C)(C)C(O)(CC4C/C(=C/C(=O)OC)CC(/C=C/C(C)(C)C1(O)O2)O4)O3", "note": "(stereo not shown) [bryo-1, Bryostatin-1]", "values": [{"measurement": "clinical scores after discontinuation vs vehicle-treated group", "setting": "[1]; after discontinuation at day 51, followed through day 71", "value": "remained significantly lower; also recorded: remained below those of vehicle-treated mice"}, {"measurement": "clinical scores throughout the treatment period and for several days after discontinuation", "setting": "[1]; treatment day 28 to day 51 post-immunization", "value": "steadily improved"}, {"measurement": "time after discontinuing at which neurologic deficits worsened", "setting": "[1]; treatment discontinued on day 51 post-immunization", "value": "approximately 1 wk"}, {"measurement": "time to improvement after treatment initiation", "setting": "[1]; treatment started day 28 post-immunization", "value": "within a week of treatment initiation"}, {"measurement": "established motor deficits", "setting": "[1]; treatment started day 28 post-immunization, 30 μg/kg i.p. 3 d per week", "value": "reversed motor deficits"}, {"measurement": "expression of regulatory T-cell marker FoxP3", "setting": "[2]; [6]", "value": "increased expression"}, {"measurement": "up-regulation of CD44", "setting": "[2]; [6]", "value": "inhibited up-regulation"}, {"measurement": "up-regulation of IFNγ", "setting": "[2]; [6]", "value": "inhibited up-regulation"}, {"measurement": "effects on CD44, IFNγ and FoxP3 with stronger T-cell stimulation", "setting": "[2]; of α-CD3/CD28", "value": "these effects were lost"}, {"measurement": "motor deficits and subsequent course of EAE", "setting": "[3]; 30 μg/kg i.p. 3 d per week, started at first clinical sign (tail paralysis, score 1.0)", "value": "substantially attenuated"}, {"measurement": "peak clinical score vs vehicle-treated mice", "setting": "[3]; treatment started at score 1.0", "value": "lower peak clinical score"}, {"measurement": "recovery vs vehicle-treated mice", "setting": "[3]; treatment started at score 1.0", "value": "faster recovery"}, {"measurement": "rate of oligodendrogenesis (MBP staining)", "setting": "[4]", "value": "appears to have increased the rate of oligodendrogenesis"}, {"measurement": "percentage of infiltrating CD4+ lymphocytes expressing IL17", "setting": "[5]; [7]", "value": "unchanged"}, {"measurement": "proportion of infiltrating CD4+ lymphocytes producing IFNγ", "setting": "[5]; [7]", "value": "decreased proportion"}, {"measurement": "numbers of Th1 (CD4+; IFNγ+) lymphocytes in lymph nodes", "setting": "[5]; [8]", "value": "significantly decreased numbers"}, {"measurement": "numbers of Th17 (CD4+; IL17+) lymphocytes in lymph nodes", "setting": "[5]; [8]", "value": "significantly decreased numbers"}, {"measurement": "numbers of total CD4+ (CD3+; CD4+) lymphocytes in lymph nodes", "setting": "[5]; [8]", "value": "significantly decreased numbers"}, {"measurement": "proportion of Th1 cells among CD4+ lymphocytes", "setting": "[5]; [9]", "value": "significantly lower proportion"}, {"measurement": "proportion of Th17 cells among CD4+ lymphocytes", "setting": "[5]; [9]", "value": "insignificant decrease"}, {"measurement": "infiltration of CD4+ lymphocytes into the brain", "setting": "[5]; [10]", "value": "diminished infiltration"}, {"measurement": "infiltration of CD4+ lymphocytes into the spinal cord", "setting": "[5]; [10]", "value": "diminished infiltration"}, {"measurement": "numbers of Th1 lymphocytes in spleen", "setting": "[5]; [11]", "value": "significantly decreased numbers"}, {"measurement": "numbers of Th17 cells in spleen", "setting": "[5]; [11]", "value": "trend toward decreased"}, {"measurement": "numbers of total CD4+ lymphocytes in spleen", "setting": "[5]; [11]", "value": "significantly decreased numbers"}]}
